Experimental data taken from patent US8178506B2, “Oligomeric compounds and compositions for use in modulation of small non-coding RNAs” (Regulus Therapeutics Inc., priority 2003, dated 2012).
Values joined by “and” are separate entries in the source; they are usually repeats but may differ in a detail not shown here. Equal values may be shown once. In the oligonucleotide strings, read from the 5' end, every base follows the letter of its sugar. An asterisk marks phosphorothioate; unmarked linkages are phosphodiester. Other units and linkages are bracketed, terminal groups are in braces. A string of capitals states the bases alone. e = 2'-O-(2-methoxyethyl) (MOE); [5mC] = 5-methylcytosine; d = 2'-deoxy (DNA)

Tested on: HeLa cells
Test: Cell cycle assay in HeLa cells
Format: cell-based, human
Conditions: HeLa cells
[1] = 150 nM oligomeric compound, 24 hours, relative to untreated control (UTC = 100)
[2] = 150 nM oligomeric compound, 48 hours after treatment, relative to untreated control (UTC=100)
[3] = 25 nM, 48 hours, percentage of cells in phase, average of replicates
[4] = 50 nM, 48 hours, percentage of cells in phase, average of replicates
[5] = 100 nM, 48 hours, percentage of cells in phase, average of replicates
[6] = 150 nM, 48 hours, relative to untreated control
[7] = 150 nM, 48 hours, percentage of cells in phase, average of replicates

327944 (antisense eA*eA*eA*eG*eT*eG*eT*e[5mC]*eA*eG*eA*eT*eA*e[5mC]*eG*eG*eT*eG*eT*eG*eG) [compound 327944]
% cells aneuploid [1]: 50%
% cells in cell cycle phase G1 [1]: 85%
% cells in cell cycle phase G2/M [1]: 111%
% cells in cell cycle phase S [1]: 110%
% cells in cell cycle phase subG1 [1]: 165%
% cells in cell cycle phase: G1 [2]: 75%
% cells in cell cycle phase: G2/M [2]: 144%
% cells in cell cycle phase: S [2]: 129%
% cells in cell cycle phase: aneuploid [2]: 78%
% cells in cell cycle phase: subG1 [2]: 490%

327957 (antisense e[5mC]*eA*e[5mC]*eA*eA*eG*eT*eT*e[5mC]*eG*eG*eA*eT*e[5mC]*eT*eA*e[5mC]*eG*eG*eG*eT*eT) [compound 327957]
% cells aneuploid [1]: 66%
% cells in cell cycle phase G1 [1]: 91%
% cells in cell cycle phase G2/M [1]: 145%
% cells in cell cycle phase S [1]: 88%
% cells in cell cycle phase subG1 [1]: 197%
% cells in cell cycle phase: G1 [2]: 65%
% cells in cell cycle phase: G2/M [2]: 127%
% cells in cell cycle phase: S [2]: 169%
% cells in cell cycle phase: aneuploid [2]: 85%
% cells in cell cycle phase: subG1 [2]: 864%

328403 (antisense eA*eG*eG*e[5mC]*e[5mC]*dT*dA*dT*dT*d[5mC]*d[5mC]*dT*dG*dT*dA*eG*e[5mC]*eA*eA*eA) [compound 328403]
% cells in cell cycle phase: G2/M (25 nM, 48 hours): 18%
% cells in cell cycle phase: G1 [3]: 58%
% cells in cell cycle phase: S [3]: 24%
% cells in cell cycle phase: aneuploid [3]: 13%
% cells in cell cycle phase: subG1 [3]: 1.5%
% cells in cell cycle phase: G2/M (50 nM, 48 hours): 20%
% cells in cell cycle phase: G1 [4]: 53%
% cells in cell cycle phase: S [4]: 27%
% cells in cell cycle phase: aneuploid [4]: 14%
% cells in cell cycle phase: subG1 [4]: 1.1%
% cells in cell cycle phase: G2/M (100 nM, 48 hours): 23%
% cells in cell cycle phase: G1 [5]: 48%
% cells in cell cycle phase: S [5]: 29%
% cells in cell cycle phase: aneuploid [5]: 11%
% cells in cell cycle phase: subG1 [5]: 3.5%
% cells aneuploid [1]: 53% and 82%
% cells in cell cycle phase G1 [1]: 70% and 86%
% cells in cell cycle phase G2/M [1]: 197% and 179%
% cells in cell cycle phase S [1]: 85% and 75%
% cells in cell cycle phase subG1 [1]: 284% and 189%
% cells in cell cycle phase: G1 [2]: 61% and 82%
% cells in cell cycle phase: G2/M [2]: 131% and 106%
% cells in cell cycle phase: S [2]: 177% and 148%
% cells in cell cycle phase: aneuploid [2]: 85% and 80%
% cells in cell cycle phase: G2/M (150 nM, 48 hours): 24%
% cells in cell cycle phase G1 [6]: 125%
% cells in cell cycle phase G2/M [6]: 80%
% cells in cell cycle phase S [6]: 89%
% cells in cell cycle phase aneuploid [6]: 175%
% cells in cell cycle phase subG1 [6]: 89%
% cells in cell cycle phase: G1 [7]: 37%
% cells in cell cycle phase: S [7]: 40%
% cells in cell cycle phase: aneuploid [7]: 13%
% cells in cell cycle phase: subG1 [7]: 8.2%

327949 (antisense e[5mC]*eA*e[5mC]*eA*eA*eA*eT*eT*e[5mC]*eG*eG*eA*eT*e[5mC]*eT*eA*e[5mC]*eA*eG*eG*eG*eT*eA) [compound 327949]
% cells aneuploid [1]: 68%
% cells in cell cycle phase G1 [1]: 82%
% cells in cell cycle phase G2/M [1]: 172%
% cells in cell cycle phase S [1]: 84%
% cells in cell cycle phase subG1 [1]: 194%
% cells in cell cycle phase: G1 [2]: 66%
% cells in cell cycle phase: G2/M [2]: 138%
% cells in cell cycle phase: S [2]: 157%
% cells in cell cycle phase: aneuploid [2]: 71%
% cells in cell cycle phase: subG1 [2]: 773%

327946 (antisense eA*eG*eG*e[5mC]*eG*eA*eA*eG*eG*eA*eT*eG*eA*e[5mC]*eA*eA*eA*eG*eG*eG*eA*eA) [compound 327946]
% cells aneuploid [1]: 43%
% cells in cell cycle phase G1 [1]: 90%
% cells in cell cycle phase G2/M [1]: 156%
% cells in cell cycle phase S [1]: 84%
% cells in cell cycle phase subG1 [1]: 225%
% cells in cell cycle phase: G1 [2]: 72%
% cells in cell cycle phase: G2/M [2]: 129%
% cells in cell cycle phase: S [2]: 150%
% cells in cell cycle phase: aneuploid [2]: 76%
% cells in cell cycle phase: subG1 [2]: 431%
